The supplement of paper PMC8882468
± gives the standard deviation of the averaged measurements.

How the values were obtained:
Test in all cases: CTG-3D luminescence at 96 h relative to day-0 seeding control (ratio to day 0); higher = more growth / less cytotoxicity; PDxO 3D drug screen, 96 h, CTG-3D normalised to day-0 seeding control.
HCI-008 = test system: HCI-008 (organoid from a HER2-enriched breast cancer xenograft)
HCI-010 = test system: HCI-010 (organoid from a breast cancer xenograft)
HCI-016 = test system: HCI-016 (organoid from a triple-negative breast cancer xenograft)
HCI-019 = test system: HCI-019 (organoid from a triple-negative breast cancer xenograft)
HCI-025 = test system: HCI-025 (organoid from a breast cancer xenograft)
HCI-027 = test system: HCI-027 (organoid from a triple-negative breast cancer xenograft)

C=CCn1c(=O)c2cnc(Nc3ccc(N4CCN(C)CC4)cc3)nc2n1-c1cccc(C(C)(C)O)n1 [adavosertib]
CTG-3D luminescence at 96 h
Settings	12.5 pM	0.00025 µM	0.005 µM	0.1 µM	1 µM	10 µM	100 µM	625 fM
HCI-008, days in culture: 228	2.01 ± 0.21	1.96 ± 0.074	1.71 ± 0.41	1.89 ± 0.26	0.689 ± 0.11	0.46 ± 0.17	0.251 ± 0.017	1.88 ± 0.45
HCI-008, days in culture: 244	1.42	1.98	1.93	1.91	0.808	0.555	0.252	2.27
HCI-010, days in culture: 52	2.37	2.26	2.59	1.87	1	0.21	0.0806	2.17
HCI-010, days in culture: 65	1.57	1.67	1.73	1.64	0.816	0.276	0.126	1.61
HCI-010, days in culture: 103	3.65	3.76	3.59	2.95	1.62	0.459	0.242	3.13
HCI-016, days in culture: 153	3.14	2.15	2.59	2.27	0.264	0.0723	0.0508	3.11
HCI-016, days in culture: 172	2.14	1.63	1.55	1.14	0.176	0.0497	0.0492	1.62
HCI-016, days in culture: 190	1.64	1.28	1.36	0.602	0.0834	0.0505	0.0792	1.02
HCI-016, days in culture: 199	1.57	1.35	1.53	1.52	0.172	0.0306	0.0372	1.43
HCI-019, days in culture: 110	2.05	1.58	1.23	1.52	0.377	0.536	0.502	2.37
HCI-019, days in culture: 131	2.63	3.93	2.52	2.25	0.386	0.381	0.4	3.56
HCI-019, days in culture: 152	2.43	2.43	3.28	1.42	0.511	0.452	0.519	2.53
HCI-025, days in culture: 172	2.76	1.83	3.85	2	1.8	0.188	0.128	1.79
HCI-025, days in culture: 209	1.68	1.93	1.69	1.36	1.03	0.124	0.157	2.05
HCI-025, days in culture: 218	1.7	1.86	1.94	1.75	1.05	0.215	0.0695	1.86
HCI-027, days in culture: 176	1.72	1.45	2.67	1.21	0.185	0.0765	0.0542	2.5
HCI-027, days in culture: 194	1.64	1.52	1.33	1.65	0.158	0.0827	0.0536	1.42
HCI-027, days in culture: 201	1.68	1.69	2.08	2.23	0.149	0.0964	0.0691	1.7

CC(=O)O[C@H]1C(=O)[C@@]2(C)[C@H]([C@H](OC(=O)c3ccccc3)[C@]3(O)C[C@H](OC(=O)[C@H](O)[C@@H](NC(=O)c4ccccc4)c4ccccc4)C(C)=C1C3(C)C)[C@]1(OC(C)=O)CO[C@@H]1C[C@@H]2O [paclitaxel]
CTG-3D luminescence at 96 h
Settings	12.5 pM	0.00025 µM	0.005 µM	0.1 µM	1 µM	10 µM	100 µM	625 fM
HCI-008, days in culture: 228	1.67 ± 0.35	1.93 ± 0.13	0.719 ± 0.08	0.575 ± 0.049	0.627 ± 0.16	0.764 ± 0.12	0.554 ± 0.067	1.55 ± 0.12
HCI-008, days in culture: 244	1.16	1.96	1.22	0.925	0.832	0.852	0.58	2.02
HCI-010, days in culture: 52	2.13	2.39	2.24	1.16	1.15	1.12	0.408	2.28
HCI-010, days in culture: 65	1.61	1.57	1.36	1.05	0.898	0.958	0.43	1.64
HCI-010, days in culture: 103	3.62	3.37	3.05	1.41	1.24	1.28	0.858	3.06
HCI-016, days in culture: 153	1.14	0.515	0.631	0.561	0.976	1.08	0.796	0.781
HCI-016, days in culture: 172	2.25	1.87	1.29	0.627	0.505	0.659	0.505	1.5
HCI-016, days in culture: 190	1.89	1.42	0.919	0.359	0.861	0.704	0.661	1.05
HCI-016, days in culture: 199	1.64	1.67	0.633	0.431	0.495	0.834	0.484	1.66
HCI-019, days in culture: 110	1.88	1.91	0.816	0.627	0.47	0.827	0.987	2.39
HCI-019, days in culture: 131	2.01	2.78	0.75	0.609	0.644	1.48	1.29	3.26
HCI-019, days in culture: 152	1.25	1.28	0.778	0.964	0.598	1.01	1.18	1.52
HCI-025, days in culture: 172	1.17	0.343	0.553	0.314	0.362	0.295	0.584	0.698
HCI-025, days in culture: 209	2.09	2.2	1.75	0.281	0.353	0.301	0.767	2
HCI-025, days in culture: 218	1.85	2.18	1.43	0.199	0.168	0.213	0.507	1.92
HCI-027, days in culture: 176	2.38	1.31	0.504	0.265	0.283	0.392	0.34	2.59
HCI-027, days in culture: 194	1.95	1.6	0.751	0.185	0.242	0.511	0.427	1.65
HCI-027, days in culture: 201	2.25	2.16	0.808	0.215	0.284	0.563	0.342	2.03

C[C@]12CC[C@@H]3c4ccc(O)cc4C[C@@H](CCCCCCCCC[S+]([O-])CCCC(F)(F)C(F)(F)F)[C@H]3[C@@H]1CC[C@@H]2O (stereo partly specified) [fulvestrant]
CTG-3D luminescence at 96 h
Settings	12.5 pM	0.00025 µM	0.005 µM	0.1 µM	1 µM	10 µM	100 µM	625 fM
HCI-008, days in culture: 228	1.6 ± 0.34	1.76 ± 0.31	1.34 ± 0.093	1.68 ± 0.074	1.62 ± 0.27	1.36 ± 0.14	1.29 ± 0.022	1.89 ± 0.35
HCI-008, days in culture: 244	1.4	1.74	1.94	2.15	1.59	1.9	1.66	2.27
HCI-010, days in culture: 52	2.11	2.41	2.26	2.46	2.2	2.56	1.97	2.06
HCI-010, days in culture: 65	1.66	1.76	1.86	1.82	1.96	1.86	1.66	1.76
HCI-010, days in culture: 103	3.27	3.34	3.47	3.46	3.26	3.15	2.99	3.29
HCI-016, days in culture: 153	2.93	2.2	2.24	2.05	2.08	2.62	1.86	2.61
HCI-016, days in culture: 172	2.46	1.77	1.97	1.54	1.72	1.14	1.63	1.6
HCI-016, days in culture: 190	1.79	1.54	1.85	1.28	1.3	0.96	1.07	1.14
HCI-016, days in culture: 199	1.92	2.05	1.9	1.67	2.19	1.62	1.44	2.07
HCI-019, days in culture: 110	2.08	1.72	1.89	2.26	1.97	2.13	1.73	1.57
HCI-019, days in culture: 131	2.86	3.69	2.72	3.98	3.13	2.98	1.94	4.13
HCI-019, days in culture: 152	2.85	3	3.24	2.41	1.37	2.3	1.6	2.94
HCI-025, days in culture: 172	3.02	1.74	3.7	1.97	1.97	1.21	2.24	2.87
HCI-025, days in culture: 209	1.87	1.6	2.26	1.66	1.8	1.4	1.23	1.44
HCI-025, days in culture: 218	1.47	1.8	1.97	1.54	1.5	1.93	1.21	1.28
HCI-027, days in culture: 176	2.05	1.67	2.89	2.3	2.57	1.77	2.18	2.36
HCI-027, days in culture: 194	1.74	1.82	1.53	1.78	2.32	2.05	2.15	1.71
HCI-027, days in culture: 201	2.63	2.77	2.87	2.64	2.56	2.01	1.85	2.4

O=C(c1ccc(F)c(F)c1Nc1ccc(I)cc1F)N1CC(O)([C@@H]2CCCCN2)C1 [cobimetinib]
CTG-3D luminescence at 96 h
Settings	12.5 pM	0.00025 µM	0.005 µM	0.1 µM	1 µM	10 µM	100 µM	625 fM
HCI-008, days in culture: 228	1.65 ± 0.23	1.7 ± 0.1	1.33 ± 0.13	1.14 ± 0.47	1.11 ± 0.17	1 ± 0.69	-0.00126 ± 0.003	1.7 ± 0.47
HCI-008, days in culture: 244	1.27	1.9	1.87	1.57	1.1	1.08	0.000182	2.25
HCI-010, days in culture: 52	2.3	2.56	2.39	2.62	2.15	1.67	0.00712	2.57
HCI-010, days in culture: 65	1.64	1.75	1.83	1.67	1.6	1.18	0.00337	1.61
HCI-010, days in culture: 103	3.83	3.96	3.78	3.21	2.72	1.92	0.00125	3.51
HCI-016, days in culture: 153	3.32	1.63	2.26	1.1	1.56	1.38	0.0036	2.59
HCI-016, days in culture: 172	2.03	1.92	1.82	0.984	1.38	0.776	0.0013	1.63
HCI-016, days in culture: 190	1.55	1.08	1.45	1	0.91	0.962	0.00248	1.37
HCI-016, days in culture: 199	1.61	1.48	1.59	1.4	1.28	1.19	0.00262	1.78
HCI-019, days in culture: 110	1.61	2.17	1.42	1.74	0.92	0.565	-0.00268	2.27
HCI-019, days in culture: 131	2.19	3.62	3.36	3.24	1.65	1.41	-0.00394	3.82
HCI-019, days in culture: 152	3.36	3.14	2.66	1.88	1.11	0.848	-1.56e-05	2.36
HCI-025, days in culture: 172	2.78	1.47	2.47	1.38	1.47	0.608	-0.00396	2.94
HCI-025, days in culture: 209	1.76	1.67	2.01	1.27	1.15	1.26	-0.00298	1.83
HCI-025, days in culture: 218	1.65	2.13	1.88	1.42	1.18	1.58	-0.00137	1.71
HCI-027, days in culture: 176	2.03	1.26	2.15	1.13	1.04	0.17	0.0169	1.76
HCI-027, days in culture: 194	1.89	1.29	1.38	1.42	1.56	0.796	0.014	1.65
HCI-027, days in culture: 201	1.99	1.85	1.63	1.68	0.995	0.365	0.0102	2.09
